Measurements as given in patent publication US20100317625A1, “NOVEL SULFONAMIDOMETHYLP[…] BETA-LACTAMASE” (priority 2006, published 2010).
In brackets after ≈: the same amount, converted by molar mass.

What was measured:
[1] = system: CL 5701 (Pseudomonas aeruginosa; Pa AmpC); test: microbe, parasite or virus in culture; conditions: read-out: Imipenem MIC
From the text: (§1) The assay determines the concentration of a β-lactamase inhibitor required to reduce the MIC of a β-lactam antibiotic by one-half, one-quarter, one-eighth, one-sixteenth and one-thirty-second against strains of bacteria normally resistant to the antibiotic in question. This is accomplished by titrating the inhibitor (BLI=beta-lactamase inhibitor) in a serial dilution across a microtiter plate while at the same time titrating the antibiotic (AB) in a serial dilution down the microtiter plate and then inoculating the plate with the bacterial strain in question and allowing the bacteria to grow up overnight. Each well in this microplate checkerboard contains a different combination of concentrations of the inhibitor and the antibiotic allowing a full determination of any synergy between the two.
(§2) 100 μL is serially diluted from row A to row G of each MIC 2000 plate. […] 100 μL is removed from each well in row G of each MIC 2000 plate. […] 100 μL is serially diluted from column 1 to column 11 of each MIC 2000 plate. […] Plates are left at 37° C. for about 20 hours and scored for growth by eye. […]
(§3) Plates are scored for growth in each well. End points (MICs) where there is no growth in each row are determined and the concentrations of AB and the test BLI at each of these growth negative wells are then used to determine levels of synergy.

[2] = system: CL 6188 (Acinetobacter baumanii; Oxa40); test: microbe, parasite or virus in culture; conditions: Acinetobacter baumannii, read-out: Imipenem MIC
From the text: as §1, §2, §3

- MIC [1]: 20 µg/mL (≈ 66.8 µM)
- MIC [2]: 128 µg/mL (≈ 428 µM)
Compound: C[C@@H](O)[C@H]1C(=O)N2C(C(=O)O)=C(SCCN=CN)C[C@H]12 [Imipenem]
